Experimental data published in patent publication US12397067B2, “Sulfur- or heavy atom-containing nanoparticles, methods of making same, and uses thereof” (Cornell University, priority 2017, dated 2025).

What was measured:
[1] = Singlet oxygen quantum yield determination with DPBF sensor, relative to methylene blue; settings: FIG. 15b inset, 635 nm exposure
Description: Determination of singlet oxygen quantum yields, ΦΔ. Measurements were carried out in ethanol with DPBF as a singlet oxygen detector molecule. The DPBF band at 410 nm and λmax of each dye were absorption matched across a particle series. For measurements of effective ΦΔ samples were concentration matched. The spectra were exposed and measured in a 100 μL quartz cuvette (Starna). Samples were evenly exposed to a 635 nm solid-state laser at 3 mW/cm^2 and 1 cm spot size. Measurements were started immediately after DPBF addition. The decrease of the 410 nm DPBF band was measured at various exposure times and corrected against a baseline. ΦΔ for each sample was calculated by comparing to MB (ΦΔ=0.520 in ethanol) as a standard (see example calculations).
Example calculation to determine singlet oxygen quantum yield, ΦΔ. ΦΔ(sample) is determined relative to a standard with known ΦΔ(standard) using equation (5):
[formula] Here, we used methylene blue (MB) as a standard with known ΦΔ(MB)=0.520. With the slopes, m, from the linear fits through the values of the 410 nm DPBF absorption band at different exposure times, ΦΔ(sample) can be calculated. With the values from FIG. 15b inset m(ATTO647N 7.5% iC′ dots)=0.00314 s^−1 and m(MB)=0.02506 s^−1, Φ^Δ (ATT0647N 7.5% iC′ dots)=0.520([…])=0.065.

[2] = in ethanol; cited from earlier work
[3] = test system: BxPC3 pancreatic cancer cells; assay: Cell toxicity study, Presto Blue % viability; assay type: cell-based; settings: 14 mM (10% of typical imaging concentration), 16 hours
Description: Cell toxicity studies. BxPC3 pancreatic cancer cells were maintained in RPMI 1640 supplemented with 10% FBS at 37° C. with 5% CO2. To measure effects of C′ dots or βME on cells, cells at ˜70% confluence were washed with PBS, exposed to trypsin, resuspended, and dispensed into 96-well tissue culture plates (20,000 cells per well). Cells were allowed to settle overnight, forming a monolayer ˜70-80% confluent. The medium was removed from each well, and replaced with medium supplemented with varying amounts of either 60% srC′ dots or βME, or with DMSO (carrier agent) alone as a control, as well as 1× Pen-Strep antibiotic. Cells were then incubated for 6 days (srC′ dots) or 16 hours ((ME). Following incubation, medium was removed, cells washed with fresh medium and then incubated for one hour with fresh medium and Presto Blue per the manufacturer's recommendations. The absorbance of the Presto Blue was determined at 570 nm (background 600 nm) using a Tecan Safire microplate reader. Absorption was compared to that of a blank (medium plus Presto Blue in unused wells) to determine % viability of remaining cells, with the DMSO control lane defined as 100% viability, and the empty wells defined as 0% viability. All experiments were performed in triplicate.

| SMILES | slope m of linear fit of ln relative DPBF absorption at 410 nm vs exposure time [1] | singlet oxygen quantum yield, ΦΔ (known value of standard) [2] | %-cell viability [3] |
| --- | --- | --- | --- |
| CN(C)c1ccc2nc3ccc(=[N+](C)C)cc-3sc2c1 [MB, methylene blue] | 0.02506 s^−1 | 0.520 |  |
| OCCS [βME, β-mercaptoethanol] |  |  | substantial cell death |
